In ChEMBL document CHEMBL4354787, “Inhibitors of inosine 5'-monophosphate dehydrogenase as emerging new generation antimicrobial agents” (Medchemcomm, 2019):

Experiments:
[1] = Inhibition of Francisella tularensis IMPDH expressed in Escherichia coli BL21(DE3) deletion in guaB gene using IMP as substrate preincubated for 10 mins followed by substrate addition in presence of NAD by spectrophotometer
[2] = Inhibition of Helicobacter pylori IMPDH using IMP as substrate preincubated for 10 mins followed by addition of substrate and measured after 45 mins in presence of NAD by fluorescence based assay
[3] = Inhibition of Mycobacterium tuberculosis IMPDH2
[4] = molecular target: Inosine-5'-monophosphate dehydrogenase (Mycobacterium tuberculosis (strain ATCC 25618 / H37Rv)) (UniProt P9WKI7); experiment: Inhibition of Mycobacterium tuberculosis H37Rv IMPDH2 at 1 uM using IMP as substrate incubated for 20 mins in presence of NAD by UV spectrophotometric analysis relative to control
Sequence of Inosine-5'-monophosphate dehydrogenase (Mycobacterium tuberculosis (strain ATCC 25618 / H37Rv)) (P9WKI7 whole entry): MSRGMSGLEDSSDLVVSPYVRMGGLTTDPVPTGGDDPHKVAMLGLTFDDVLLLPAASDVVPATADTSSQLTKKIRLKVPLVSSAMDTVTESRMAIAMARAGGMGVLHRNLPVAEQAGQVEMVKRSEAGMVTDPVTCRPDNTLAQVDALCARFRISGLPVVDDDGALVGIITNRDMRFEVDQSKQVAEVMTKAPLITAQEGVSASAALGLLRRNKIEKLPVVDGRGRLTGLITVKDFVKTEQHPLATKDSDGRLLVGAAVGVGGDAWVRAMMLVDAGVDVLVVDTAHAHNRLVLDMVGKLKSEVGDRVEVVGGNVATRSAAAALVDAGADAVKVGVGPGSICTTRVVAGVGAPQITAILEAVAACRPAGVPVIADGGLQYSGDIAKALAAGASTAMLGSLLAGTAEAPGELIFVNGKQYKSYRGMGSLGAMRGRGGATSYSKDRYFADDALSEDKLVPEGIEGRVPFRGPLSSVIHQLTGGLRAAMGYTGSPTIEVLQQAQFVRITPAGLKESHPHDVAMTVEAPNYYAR

[5] = Inhibition of Helicobacter pylori IMPDH
[6] = molecular target: Inosine-5'-monophosphate dehydrogenase 2 (Homo sapiens) (UniProt P12268); experiment: Inhibition of human IMPDH2 relative to control; details: concentration not given here
Sequence of Inosine-5'-monophosphate dehydrogenase 2 (Homo sapiens) (P12268 2-514 limits assumed): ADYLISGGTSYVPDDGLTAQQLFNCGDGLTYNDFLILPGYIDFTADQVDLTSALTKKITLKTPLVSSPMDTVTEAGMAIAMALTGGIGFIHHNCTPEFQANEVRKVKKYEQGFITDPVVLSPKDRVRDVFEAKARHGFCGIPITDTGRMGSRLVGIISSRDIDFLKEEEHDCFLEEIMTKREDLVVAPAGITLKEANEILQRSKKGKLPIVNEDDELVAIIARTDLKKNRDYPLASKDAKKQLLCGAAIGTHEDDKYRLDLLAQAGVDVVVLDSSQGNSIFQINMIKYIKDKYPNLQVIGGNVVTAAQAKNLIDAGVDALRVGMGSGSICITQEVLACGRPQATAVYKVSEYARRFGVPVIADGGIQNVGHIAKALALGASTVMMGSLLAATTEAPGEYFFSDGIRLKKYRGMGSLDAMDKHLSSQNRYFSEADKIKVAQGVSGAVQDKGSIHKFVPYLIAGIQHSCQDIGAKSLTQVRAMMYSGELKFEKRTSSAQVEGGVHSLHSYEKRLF

## C[C@H](Oc1cccc(Cl)c1Cl)C(=O)Nc1ccc2oc(-c3ccncc3)nc2c1
[1]
  Ki: 22 nM

## C[C@H](Oc1cccc(Cl)c1Cl)C(=O)Nc1ccc2oc(-c3ccc(C(=O)NO)cc3)nc2c1
[1]
  Ki: 13 nM

## COc1cccc(Cn2cc(COc3ccc(-c4nnc(C)o4)cc3)nn2)c1
[2]
  IC50: 4060 nM

## COc1c(C)c2c(c(O)c1C/C=C(\C)CCC(=O)O)C(=O)OC2 [MYCOPHENOLIC ACID]
[3]
  IC50: 27200 nM

## Cc1ccc([N+](=O)[O-])cc1NC(=O)Nc1cccc(Cl)c1
[4]
  inhibition: > 90%

## C[C@H](Oc1cccc2ccccc12)C(=O)Nc1ccc2oc(-c3ccncc3)nc2c1
[1]
  Ki: 30 nM

## O=C(Cn1cc(C(=O)Nc2cccnc2)c2ccccc21)Nc1ccc(Br)cc1
[5]
  IC50: 2200 nM

## O=C(Nc1ccc(Cl)c(Cl)c1)Nc1ccc(Br)cc1F
[4]
  inhibition: > 90%

## O=C(Nc1cccc([N+](=O)[O-])c1)Nc1ccc(Cl)c(C(F)(F)F)c1
[4]
  inhibition: > 90%

## O=C(Cc1ccc(F)c2ccccc12)Nc1ccc2c(c1)COC2=O
[6]
  inhibition: < 0.1%
[3]
  IC50: 3200 nM

## CC(C(=O)Nc1ccc2c(c1)COC2=O)c1ccc(C(=O)c2ccccc2)cc1 (stereo not drawn)
[3]
  IC50: 6200 nM

## C[C@H](Oc1cccc(Cl)c1Cl)C(=O)Nc1ccc2oc(-c3ccc(C(=O)O)cc3)nc2c1
[1]
  Ki: 15.5 nM
